Laboratory results taken from patent US20100152298A1, “Present invention relates to a treatment for the management of cancer more specially the use of Flutamide anti-androgen drugsa” (UNIVERSITY OF KUWAIT, priority 2008, published 2010).

Test system: androgen-independent prostate cancer PC-3 cells
Experiment: Growth, proliferation and viability of PC-3 cells treated with flutamide
Type: cell-based
Conditions: range of doses of flutamide

## CC(C)C(=O)Nc1ccc([N+](=O)[O-])c(C(F)(F)F)c1 [flutamide, Flutamide]
  inhibiting growth: 20-70%
